Target: mutant PAN-I38T endonuclease (Influenza A virus, UniProt P03433, I38T)
Assay type: biochemical, influenza A type virus (H1N1)

SMILES | inhibition of the endonuclease activity of PAN-I38T (in words)
CO[C@H]1/C=C/O[C@@]2(C)Oc3c(C)c(O)c4c(O)c(c5c(nc6cc(C)ccn65)c4c3C2=O)NC(=O)/C(C)=C\C=C\[C@H](C)[C@H](O)[C@@H](C)[C@@H](O)[C@@H](C)[C@H](OC(C)=O)[C@@H]1C [rifaximin] | no inhibition
O=C1[C@@H]2[C@H]3CC[C@H](C3)[C@@H]2C(=O)N1C[C@@H]1CCCC[C@H]1CN1CCN(c2nsc3ccccc23)CC1 [lurasidone] | no inhibition
CS(=O)(=O)c1cccc(C[C@H](NC(=O)c2c(Cl)cc3c(c2Cl)CCN(C(=O)c2ccc4ccoc4c2)C3)C(=O)O)c1 [lifitegrast] | inhibitory effect
C[C@]12C=CC(=O)N[C@@H]1CC[C@@H]1[C@@H]2CC[C@]2(C)[C@@H](C(=O)Nc3cc(C(F)(F)F)ccc3C(F)(F)F)CC[C@@H]12 [dutasteride] | no inhibition
CC(C)(C)NC(=O)[C@@H]1C[C@@H]2CCCC[C@@H]2CN1C[C@@H](O)[C@H](Cc1ccccc1)NC(=O)[C@H](CC(N)=O)NC(=O)c1ccc2ccccc2n1 [saquinavir] | no inhibition
